Data taken from patent publication US8232289B2, “Spiropiperidine compounds as ORL-1 receptor antagonists” (Eli Lilly and Company, priority 2009, dated 2012).
Marks after values point to notes of the source that are not given here.

What was measured:
[1] = Rat hepatic microsomal glutathione trapping assay; type: in vitro ADME; details: hepatic microsomal homogenate, glutathione as nucleophile
Source text: Assuming that reactive metabolites may play a role in clinical IDRs, minimizing the potential for oxidative bioactivation has been proposed as a means of improving the overall safety profile of compounds containing structural features associated with such reactivity. (see Baillie, Thomas A., Approaches to the Assessment of Stable and Chemically Reactive Drug Metabolites in Early Clinical Trials, Chemical Research in Toxicology, vol 22(2) 2009.) To this end, representative compounds of the present invention and related compounds are screened using a rat hepatic microsomal trapping assay, using glutathione as an endogenous nucleophile, to understand the potential for oxidative bioactivation of the thienyl moiety. […] Of the compounds tested, those wherein R^2a and R^2b are fluoro are found to not show glutathione conjugate formation.

[2] = target: T1, cloned human ORL1/nociceptin receptors (Homo sapiens, UniProt P41146); assay: Functional blockade of agonist-mediated G-protein activation, GTP-γ-[35S] binding; type: biochemical; details: stimulation with 300 nM nociceptin/OFQ; read-out: Kb for the ORL-1 receptor (antagonist affinity)
T1 construct: expressed in transfected cells
Source text: Agonist-mediated stimulation of G-protein coupled receptors results in the activation of membrane associated Gαβγ-protein heterotrimer complexes, and represents the first step in the transduction of extracellular signals to modification of intracellular pathways. The first step in activation of receptor-mediated activation of Gαβγ-proteins heterotrimer is the exchange of Gα subunit bound guanosine diphoshpate (GDP) for guanosine triphosphate (GTP). The binding of GTP to the Gα subunit causes dissociation of the heterotrimer subunits, Gβ and Gγ, resulting in the modulation of several intracellular signaling cascades. Measurement of receptor-mediated G-protein activation can be measured using the non-hydrolyzable radiolabeled analog of GTP, GTP-γ-[35S]. Utilizing this methodology, antagonist affinity (Kb) is measured in membranes expressing cloned human ORL1/nociceptin receptors using a GTP-γ-[35S] binding assay according to previously described protocols with minor modifications (DeLapp et al., J Pharmacol Exp Ther. 1999 May; 289(2):946-55; Ozaki et al., Eur J Pharmacol. 2000 Aug. 18; 402(1-2):45-53). Assays are conducted in a 200-μl volume with the following buffer composition: 100 mM NaCl, 20 mM HEPES, 5 mM MgCl2, 1 mM EDTA, 0.1% BSA, 3 μM GDP, 0.5 nM [^35S]GTPγS. ORL1 receptor membrane suspension is added at a concentration of 20 μg protein per well and receptor stimulation is achieved using 300 nM nociceptin/OFQ. Wheat germ agglutinin coated SPA beads (Amersham, Arlington Hts., IL) are added at 1 mg per well to detect membrane-bound [^35S]GTPγS. Plates are sealed and incubated for 2 hr. at room temperature. Plates are then placed at 4° C. overnight to allow the SPA beads to settle and then counted in a Wallac Microbeta. Specific [^35S]GTPγS binding is determined as the difference in CPM observed in the absence and presence of 10 μM unlabeled GTPγS. Data are plotted as the percent of specific [^35S]GTPγS bound. Curves are plotted as the percent of specific binding and IC50 values are determined using a sigmoidal dose response curve with variable slope. […]

[3] = test system: 129S6 wild type and nociceptin/ORL1 receptor knockout mice; assay: mFST in wild type and ORL-1 knockout mice; type: in vivo
Source text: (§1) mFST is an established in vivo assay for antidepressant activity (Li et al. J Pharmacol Exp Ther. 319(1):254-9, 2006.). […] The mFST was used to evaluate potential antidepressant-like activity of novel nociceptin/ORL1 antagonists according to previously published methods (Li et al. J Pharmacol Exp Ther. 319(1):254-9, 2006.). Briefly, male NIH-Swiss mice (Harlan Sprague-Dawley, Indianapolis, Ind.) weighing between 25-30 g are used. Group housed animals are removed from the vivarium to the testing area in their own cages and allowed to adapt to the new environment for at least 1 hour before testing. Alternatively, male 129S6 wild type and nociceptin/ORL1 receptor knockout mice were used to confirm dependence of the response to compound was nociceptin/ORL1 receptor dependent. All compounds are prepared in 20% Captisol, 25 mM phosphate buffer, pH 2.0 on the day of use. Mice are placed in a cylinder (diameter: 10 cm; height: 25 cm) filled with 6 cm of water (22-25° C.) for 6 min. The duration of immobility during the last 4 min. of the 6 min. period of the test was scored. A mouse is recorded as immobile when floating motionless or making only those movements necessary to keep its head above water.
Yet further, these effects of reduced immobilization times are not observed when ORL-1 knockout mice, a strain of mice engineered to lack the ORL-1 receptor, are used, showing that the effect is indeed mediated by the ORL-1 receptor.

[4] = test system: male NIH-Swiss mice; assay: Forced-swim test in mice (mFST); type: in vivo
Source text: as §1

[5] = test system: Male Sprague-Dawley rats; assay: Rat dural plasma protein extravasation (PPE) model, oral dosing; type: in vivo; details: 1.0 mg/kg po
Description: All test compounds are prepared in a vehicle solution containing 20% Captisol in 25 mM phosphate buffer (pH 2.0). The positive control compound, sumatriptan, is dissolved in saline. Male Sprague-Dawley rats from Harlan Laboratories (250 to 350 g), that have been fasted overnight, are dosed with test compound, sumatriptan or vehicle by oral gavage (2 mL/kg). Fifty min. post-dose the rats are anesthetized with Nembutal (60 mg/kg, ip) and placed in a stereotaxic frame with the incisor bar set at −2.5 mm. Following a mid-line sagittal scalp incision, 2 pairs of bilateral holes were drilled through the skull (3.2 mm posteriorly, 1.8 and 3.8 mm laterally, all coordinates referenced to bregma). Pairs of stainless steel stimulating electrodes (Rhodes Medical Systems Inc), insulated except at the tips, are lowered through the holes in both hemispheres to a depth of 9.2 mm below the dura.
A solution of fluoroscein isothiocyanate (FITC) dye-labeled bovine serum albumin (BSA) (FITC-BSA) (20 mg/kg, iv), is injected into the femoral vein 2 minutes prior to electrical stimulation of the trigeminal ganglion to function as the marker for protein extravasation. Sixty minutes following dosing with test compound or vehicle, the left trigeminal ganglion is electrically stimulated for 5 minutes at a current intensity of 1.0 mA (5 Hz, 5 minutes duration).
Five minutes following stimulation, the rats are killed by exsanguination with 40 mL of saline which also rinses residual FITC/BSA out of the blood vessels. The top of the skull is removed to collect the dural membranes. The membrane samples are removed from both hemispheres, rinsed with water, and spread flat on microscope slides. The slides are dried for 15 minutes on a slide warmer and cover-slipped with a 70% glycerol/water solution.
A fluorescence microscope equipped with a grating monochromator and a spectrophotometer is used to quantify the amount of FITC-BSA dye in each dural sample. The microscope is equipped with a motorized stage interfaced with a personal computer. This facilitates the computer-controlled movement of the stage, with fluorescence measurements at 25 points (500 μm steps) on each dural sample. The extravasation induced by electrical stimulation of the trigeminal ganglion is an ipsilateral effect (that is occurs only on the side of the dura in which the trigeminal ganglion is stimulated). This allows the other (unstimulated) half of the dura to be used as a control. The extravasation ratio (that is the ratio of the amount of extravasation in the dura from the stimulated side compared to the unstimulated side) is calculated. Animals dosed with vehicle alone or an ineffective dose of the test compound have an extravasation ratio of approximately 2, while totally effective treatments result in a ratio of approximately 1.
Results are expressed as mean values with standard errors of the mean (±SEM). All statistical evaluations are conducting utilizing ANOVA followed by comparison to the control group by Dunnett's Method. Statistical significance is assumed when p<0.05. Statistical analyses are performed using JMP statistical analysis software (SAS Research Institute, version 6.0.2).

[6] = test system: wild type and ORL knockout mice; assay: Blockade of fasting-induced hyperphagia in mice; type: in vivo
Source text: Blockade of fasting-induced hyperphagia in rodents is an accepted model for hyperphagic eating disorders. […] Mice are individually housed a minimum of 3 days prior to the onset of testing to eliminate any effects of stress due to the change from group to individual housing. Three mice/genotype are randomly assigned to each treatment group on the test day. Pre-fast body weight measurements are taken, and food is then removed from cages overnight. Mice are fasted for approximately 15 hr. The next morning, the mice are given one of three doses of drug or vehicle via oral gavage 30 min. prior to gaining access to food. Drugs are dissolved in 20% Captisol dissolved in 25 mM phosphate buffer, pH 2.0. Measurements of body weight are taken immediately prior to drug treatment or 24 hr. after access to food is restored. […] Measurements of food intake are recorded 1 hr following access to food, as indicated, by weight of food remaining at 1 hr. It should be noted that food intake measured is during the light phase, a time during which mice are typically at rest and not normally eating. Following initial testing, mice are rested for 1 week with access to unlimited chow.

T1 sequence (P41146 whole entry): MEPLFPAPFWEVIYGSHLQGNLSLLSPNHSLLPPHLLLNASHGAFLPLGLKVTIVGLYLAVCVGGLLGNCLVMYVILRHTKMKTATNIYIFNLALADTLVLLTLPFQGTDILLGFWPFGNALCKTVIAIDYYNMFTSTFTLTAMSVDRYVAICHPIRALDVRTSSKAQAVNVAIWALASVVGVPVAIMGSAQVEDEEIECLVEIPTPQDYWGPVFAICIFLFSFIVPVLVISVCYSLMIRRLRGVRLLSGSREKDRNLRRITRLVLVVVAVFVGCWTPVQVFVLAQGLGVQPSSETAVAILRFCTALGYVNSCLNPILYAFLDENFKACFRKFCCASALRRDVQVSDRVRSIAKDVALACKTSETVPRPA

Cc1nn(-c2c(F)cccc2C(N)=O)cc1CN1CCC2(CC1)OCCc1c2sc(F)c1F.O=C(O)C(O)C(O)C(=O)O [3-fluoro-2-[4-[(2,3-difluorospiro[4,5-dihydrothieno[2,3-c]pyran-7,4′-piperidine]-1′-yl)methyl]-3-methyl-pyrazol-1-yl]benzamide (L) Tartrate, reference compound]
Glutathione conjugate formation [1]: Yes

Cc1nn(-c2c(F)cccc2C(N)=O)cc1CN1CCC2(CC1)OCCc1cc(F)sc12.O=C(O)C(O)C(O)C(=O)O [3-fluoro-2-[4-[(2-fluorospiro[4,5-dihydrothieno[2,3-c]pyran-7,4′-piperidine]-1′-yl)methyl]-3-methyl-pyrazol-1-yl]benzamide (L) Tartrate, reference compound]
Glutathione conjugate formation [1]: Yes

Cc1nn(-c2ncccc2CO)cc1CN1CCC2(CC1)OCC(F)(F)c1cc(Cl)sc12 [Example 1, [2-[4-[(2-Chloro-4,4-difluoro-spiro[5H-thieno[2,3-c]pyran-7,4′-piperidine]-1′-yl)methyl]-3-methyl-pyrazol-1-yl]-3-pyridyl]methanol (L)-tartrate]
Kb [2]: 0.2 nM

COCc1cccnc1-n1cc(CN2CCC3(CC2)OCC(F)(F)c2cc(F)sc23)c(C)n1.O=C(O)C(O)C(O)C(=O)O [Example 10, 2,4,4-Trifluoro-1′-[[1-[3-(methoxymethyl)-2-pyridyl]-3-methyl-pyrazol-4-yl]methyl]spiro[5H-thieno[2,3-c]pyran-7,4′-piperidine] (L)-Tartrate]
Glutathione conjugate formation [1]: No

COCc1cccnc1-n1cc(CN2CCC3(CC2)OCCc2cc(Cl)sc23)c(C)n1.O=C(O)C(O)C(O)C(=O)O [Example 14, 2-Chloro-1′-[[1-[3-(methoxymethyl)-2-pyridyl]-3-methyl-pyrazol-4-yl]methyl]spiro[4,5-dihydrothieno[2,3-c]pyran-7,4′-piperidine] (L)-Tartrate]
Glutathione conjugate formation [1]: Yes

CN(C)CCCN1c2ccccc2CCc2ccccc21 [Imiprimine, reference compound]
effect on immobilization time ([3]; ORL-1 knockout mice): reduce immobilization times in both the wild type and knockout mice to an equivalent degree | effect on immobilization time ([3]; wild type mice): reduce immobilization times in both the wild type and knockout mice to an equivalent degree | Immobilization Time ([4]; 15 mg/kg, positive control): 96* sec

CNS(=O)(=O)Cc1ccc2[nH]cc(CCN(C)C)c2c1 [Sumatriptan, reference compound]
Extravasation Ratio (mean) [5]: 1.06*

CNCCC(Oc1ccc(C(F)(F)F)cc1)c1ccccc1 (stereo not drawn) [fluoxetine, reference compound]
Immobilization Time ([4]; 10 mg/Kg, alone): 168 s

Clc1cccc(N2CCNCC2)c1 [mCPP, meta-chlorophenylpiperazine, reference compound]
effect on fasting-induced hyperphagia ([6]; ORL-1 knockout mouse strain): significantly reduce fasting induced hyperphagia equally in both wild type mice and the ORL-1 knockout mouse strain | effect on fasting-induced hyperphagia ([6]; wild type mice, oral gavage 30 min. prior to food, food intake at 1 hr): significantly reduce fasting induced hyperphagia equally in both wild type mice and the ORL-1 knockout mouse strain
